How the values were obtained:
Cavia porcellus [1] = species: Cavia porcellus; experiment: Tested for inhibition against thromboxane A2/prostaglandin H2 receptor in guinea pig washed platelets using radioligand [3H]U-46619 at 100 uM
[2] = Tested for specific binding of radioligand [3H]U-46619 to thromboxane A2/prostaglandin H2 receptor in guinea pig washed platelets; parameters: species or system Cavia porcellus
Cavia porcellus [3] = species: Cavia porcellus; experiment: Tested for inhibition against thromboxane A2/prostaglandin H2 receptor in guinea pig washed platelets using radioligand [3H]U-46619 at 1 uM
[4] = system: Thromboxane-A synthase (Bos taurus); experiment: Tested against TXA2 synthase in bovine platelet microsome at 10 uM
Rattus norvegicus [5] = experiment: Tested for the effect at 30 mg/kg through peroral route on rat blood urea nitrogen, 24 hr after reperfusion; (p<0.01); assay type: functional; conditions: route oral
Rattus norvegicus [6] = experiment: Tested for the effect at 30 mg/kg through peroral route on rat blood urea nitrogen, 48 hr after reperfusion; (p<0.05); assay type: functional; conditions: route oral
Rattus norvegicus [7] = experiment: Tested for the effect at 30 mg/kg through peroral route on rat serum creatinine, 48 hr after reperfusion; assay type: functional, organism-based; parameters: dose 30 mg/kg
Rattus norvegicus [8] = experiment: Tested for the effect at 30 mg/kg through peroral route on rat serum creatinine, 24 hr after reperfusion; (p<0.05); assay type: functional, organism-based; parameters: dose 30 mg/kg
Homo sapiens = species: Homo sapiens; experiment: In vitro inhibition of U-46619 (3 uM) -induced human platelet aggregation; assay type: functional
[9] = Tested for specific binding of radioligand [3H]U-46619 to thromboxane A2 /prostaglandin H2 receptor in guinea pig washed platelets; parameters: species or system Cavia porcellus

In the case of C/C(=C\c1ccc(Cc2cccnc2)cc1)C(=O)O, the inhibition (Cavia porcellus [1]) is reported as 14%.
For O=C(O)c1ccc2c(c1)C(SCc1cccnc1)c1ccccc1CO2 (stereo in doubt; (-)-3), the Ki [2] was 85 nM.
Work on O=C(O)c1ccc2c(c1)/C(=C\Cn1ccnc1)c1ccccc1CO2 yielded a Ki [2] of 4500 nM.
O=C(O)c1ccc2c(c1)C(SCc1cccnc1)c1ccccc1CO2 (single isomer, unassigned; (+)) showed a Ki [2] of 8200 nM.
For O=C(O)c1ccc2c(c1)C(NCc1cccnc1)c1ccccc1CO2 (racemic), the inhibition (Cavia porcellus [3]) was 12%.
O=C(O)c1ccc2c(c1)C(NCc1ccccc1)c1ccccc1CO2 (racemic) showed an inhibition [4] of -4% and an inhibition (Cavia porcellus [3]) of 6%.
With O=C(O)c1ccc2c(c1)/C(=C\Cc1cccnc1)c1ccccc1CO2 the Blood urea nitrogen (Rattus norvegicus [5]) was 34.18, the Blood urea nitrogen (Rattus norvegicus [6]) was 30.37 and the Ki [2] was 180 nM. The Serum creatinine (Rattus norvegicus [7]) was 1.16, the Serum creatinine (Rattus norvegicus [8]) was 1.48 and the IC50 (Homo sapiens) was 9600 nM.
O=C(O)CCCC/C=C(\c1ccccc1)c1cccnc1 [(E)-ISBOGREL] showed a Blood urea nitrogen (Rattus norvegicus [5]) of 58.07, a Blood urea nitrogen (Rattus norvegicus [6]) of 48.38 and a Serum creatinine (Rattus norvegicus [7]) of 2.02. It also gave a Serum creatinine (Rattus norvegicus [8]) of 2.07, an IC50 (Homo sapiens) of 280000 nM and a Ki [9] of 2700 nM.
O=C(O)c1ccc2c(c1)/C(=N\Cc1cccnc1)c1ccccc1CO2 gave a Ki [9] of 120 nM.
O=C(O)c1ccc2c(c1)C(SCc1cccnc1)c1ccccc1CO2 (racemic) showed a Ki [2] of 250 nM.
Molecule O=C(O)c1ccc2c(c1)/C(=C/Cn1ccnc1)c1ccccc1CO2 has a Ki [2] of 600 nM.
For O=C(O)c1ccc2c(c1)C(SCc1ccccc1)c1ccccc1CO2 (racemic), the inhibition [4] was 19% and the Ki [2] was 40 nM.

— ChEMBL document CHEMBL1126704, “Dibenzoxepin derivatives: thromboxane A2 synthase inhibition and thromboxane A2 receptor antagonism combined in one molecule” (J Med Chem, 1993)
